Tests used:
Format in all cases: physicochemical
[1] = Particle Size Distribution (PSD) by laser diffraction, Malvern Mastersizer 3000; conditions: dispersed in ethyl acetate
Method: Particle Size Distribution (PSD) by Laser Diffraction
Particle size analyses were conducted on a Malvern Mastersizer™ 3000 using the Hydro MV dispersion unit. A non-validated general PSD method/dispersant method was used to analyze the cisplatin samples. The sample preparation procedure performed was as follows:
Weigh 10 to 20 mg of cisplatin into a 30-mL vial, add 20 mL of ethyl acetate. Disperse the sample by vortexing then sonicating the suspension in an ultrasonic bath for 1 minute. Then transfer the sample suspension to the Malvem Hydro MV dispersion unit to obtain obscuration between 5 and 15%.

[2] = Specific Surface Area (SSA) by BET sorptometry
Method: As used herein, the “specific surface area” is the total surface area of the cisplatin particle per unit of cisplatin mass as measured by the Brunauer—Emmett—Teller (“BET”) isotherm (i.e.: the BET SSA). As will be understood by those of skill in the art, the SSA is determined on a per gram basis and takes into account both agglomerated and non-agglomerated cisplatin particles in the composition. The BET specific surface area test procedure is a compendial method included in both the United States Pharmaceopeia and the European Pharmaceopeia. The cisplatin particles have a specific surface area (SSA) of at least 3.5 m^2/g. In various further embodiments, the cisplatin particles have a SSA of at least 4 m^2/g, 5 m^2/g, 6 m^2/g, 7 m^2/g, 8 m^2/g, 9 m^2/g, 10 m^2/g, 11 m^2/g, 12 m^2/g, 13 m^2/g, 14 m^2/g, […] m^2/g, 17 m^2/g, 18 m^2/g, 19 m^2/g 20 m^2/g 21 m^2/g, 22 m^2/g, 23 m^2/g, or 24 m^2/g.
Specific Surface Area (SSA) determination by BET Sorptometry
Surface area analyses were conducted on a Quantachrome NOVAtouch™ LX2 BET Sorptometer. […] Surface area results can be found in Table 1.

[3] = Bulk density analysis (modified USP <616> Method I, 10 mL graduated cylinder); conditions: not tapped
Method: As used herein, the bulk density of the cisplatin particles is the mass of the totality of particles in the composition divided by the total volume they occupy when poured into a graduated cylinder and not tapped. The total volume includes particle volume, inter-particle void volume, and internal pore volume.
Bulk density analysis by modified USP <616>Bulk Density of Powders Method I
Bulk density analyses were conducted using a 10 mL graduated cylinder due to low sample volume. SC1 was the only precipitate measured due to insufficient materials available for analysis from SC2 and SC3. […] Bulk density results can be seen in Table 1.

Structure (SMILES): N.N.[Cl][Pt][Cl] [Raw, Cisplatin]
- PSD - Mastersizer Dv10 [1]: 1.72 μm
- PSD - Mastersizer Dv50 [1]: 10.9 μm
- PSD - Mastersizer Dv90 [1]: 25.9 μm
- Surface Area [2]: 2.44 m^2/g
- Bulk Density [3]: 1.01 g/mL

Source: patent publication US20240156861A1, “Cisplatin particles and uses thereof” (CRITITECH, INC., priority 2022, published 2024)
